Values quoted from earlier work in patent publication US5670364A, “A83543 compounds and process for production thereof” (priority 1995, dated 1997).

Columns and labels:
[1] = tested on: histamine N-methyltransferase; details: cited from earlier work
[2] = tested on: S-adenosyl-methionine-dependent O-methyltransferase; details: avermectin-producing strains; cited from earlier work
[3] = tested on: macrocin O-methyltransferase; details: cited from earlier work
[4] = tested on: catechol O-methyltransferase; details: cited from earlier work
[5] = tested on: norepinephrine N-methyltransferase; details: cited from earlier work

Nc1ncnc2c1ncn2[C@@H]1O[C@H](C[C@@H](N)CC[C@H](N)C(=O)O)[C@@H](O)[C@H]1O [Sinefungin]
effective in inhibiting: inhibition of histamine N-methyltransferase [1] | inhibition of O-methyltransferase in S. avermitilis [2] | inhibition of macrocin O-methyltransferase [3] | inhibition of catechol O-methyltransferase [4] | inhibition of norepinephrine N-methyltransferase [5]
